This is an account of results in patent publication US11384075B2, “Quinolinone compounds” (Janssen Pharmaceutica NV, priority 2017, dated 2022).

Structures are written as SMILES.

Assay [1] relates to NIH/3T3 cells transfected with the same control vector. The experiment in a line: NIH/3T3 mock cell proliferation assay (counter assay, general toxicity). The assay is classed as cell-based. To be noted: Mus musculus, NIH3T3, 72 h, 72-hr incubation, CellTiter Glo, starting with 30 μM; counter assay for general toxicity; read-out: NIH/3T3 MOCK CTG (IC50). In outline: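 Control-vector NIH/3T3 cells, 30,000/well in DMEM with 10% FBS, exposed 72 h at 37 °C to compound (9 points, 3-fold from 30 μM, 0.3% DMSO). CellTiter-Glo luminescence normalized to survival %; IC50, pIC50 and Hill slope from concentration-response fit.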

Assay [2] deals with T1, human FGFR3 V555M enzyme (cytoplasmic domain carrying V555M mutation) (Homo sapiens, UniProt P22607, V555M).
T1 construct: human FGFR3 V555M enzyme (cytoplasmic domain carrying V555M mutation, from Carna Biosciences); purchased Carna Biosciences
Nature of the assay: FGFR3 V555M mobility shift assay (enzymatic assay). The assay is classed as biochemical. The settings on record: 30 μM ATP, 45 minutes at 30° C., Caliper EZ reader II. In short, it runs like this: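 Cytoplasmic-domain FGFR3 V555M (0.04 ng/μL) with 30 μM ATP and 1 μM FL-peptide 30 in HEPES pH 7.4/MgCl2/Brij35/DTT, 1% DMSO, 45 min at 30 °C, EDTA-stopped. Mobility-shift read of substrate-product conversion; 10-point 4× dilution from 10 μM fitted for IC50/pIC50.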

The target in assay [3] is T2, NIH/3T3 cells overexpressing FGFR3 WT-TACC3 fusion protein (Homo sapiens, UniProt P22607).
T2 construct: NIH/3T3 FGFR3 WT-TACC3 CTG (IC50); other: 72-hr incubation, CellTiter Glo, starting with 10 μM; fused on or other part: Q9Y6A5 (Transforming acidic coiled-coil-containing protein 3)
Nature of the assay: NIH/3T3 FGFR3 WT-TACC3 cell proliferation assay. It counts as cell-based. To be noted: 72-hr incubation, CellTiter Glo, starting with 10 μM; read-out: NIH/3T3 FGFR3 WT-TACC3 CTG (IC50). In short, it runs like this: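 Cells seeded overnight, then exposed 72 h at 37 °C to compound in 9-point 4-fold dilutions from 10 μM (0.1% DMSO final). Viability read by CellTiter-Glo luminescence, normalized to survival %; IC50, pIC50 and Hill slope from concentration-response fit.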

Assay [4] has as its target T3, human FGFR3 wild type enzyme (cytoplasmic domain) (Homo sapiens, UniProt P22607).
T3 construct: human FGFR3 wild type enzyme (cytoplasmic domain, from Carna Biosciences); purchased Carna Biosciences
The experiment in a line: FGFR3 wild type mobility shift assay (enzymatic assay). The assay is classed as biochemical. The settings on record: 75 μM ATP, 50 minutes at 30° C., Caliper EZ reader II. In short, it runs like this:
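Cytoplasmic domain of human wild-type FGFR3 (0.04 ng/μL) with 75 μM ATP and 1 μM FL-peptide 30, pH 7.4 HEPES/MgCl2 buffer, 1% DMSO, 50 min at 30 °C, EDTA-stopped. Substrate-product conversion read by mobility shift. IC50, pIC50 and Hill slope from 10-point 4-fold dilutions starting at 10 μM.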

Assay [5] has as its target T4, NIH/3T3 cells overexpressing FGFR3 V555M-TACC3 fusion protein (Homo sapiens, UniProt P22607, V555M, cells depend on it).
T4 construct: NIH/3T3 FGFR3 V555M-TACC3 CTG (IC50); other: 72-hr incubation, CellTiter Glo, starting with 10 μM; fused on or other part: Q9Y6A5 (Transforming acidic coiled-coil-containing protein 3)
The experiment in a line: NIH/3T3 FGFR3 V555M-TACC3 cell proliferation assay. It counts as cell-based. The settings on record: 72-hr incubation, CellTiter Glo, starting with 10 μM; read-out: NIH/3T3 FGFR3 V555M-TACC3 CTG (IC50). In outline:
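NIH/3T3 cells overexpressing FGFR3 V555M-TACC3 fusion, 30,000/well in DMEM/10% FBS, treated for 72 h at 37 °C with 9 doses (4× dilutions from 10 μM top, 0.1% DMSO). CellTiter-Glo luminescence normalised to % survival; IC50, pIC50 and Hill slope from concentration-response fits.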
(In general: ATP-based viability assays read luminescence as a measure of living cells.)

In assay [6] the target is T5, human FGFR3 V555L enzyme (cytoplasmic domain carrying V555L mutation) (Homo sapiens, UniProt P22607, V555L).
T5 construct: human FGFR3 V555L enzyme (cytoplasmic domain carrying V555L mutation, from Carna Biosciences); purchased Carna Biosciences
Nature of the assay: FGFR3 V555L mobility shift assay (enzymatic assay). The assay is classed as biochemical. To be noted: 40 μM ATP, 50 minutes at 30° C., Caliper EZ reader II. As for the experimental part: FGFR3 V555L Mobility Shift Assay (Enzymatic Assay)
In a final reaction volume of 25 μL, 0.04 ng/μL human FGFR3 V555L enzyme (cytoplasmic domain carrying V555L mutation, from Carna Biosciences) was incubated with 40 μM ATP, 1 μM FL-peptide 30 substrate and 250 nL of testing compound (1% DMSO final) in assay buffer (100 mM HEPES pH 7.4, 10 mM MgCl2, 0.003% Brij35, 1 mM DTT). After incubation for 50 minutes at 30° C. the reaction was stopped with 10 μL of 0.5M EDTA pH 8.0, and then 25 μL of reaction mixture was transferred to reading plate and measured on Caliper EZ reader II. The substrate-product conversion rate was used as raw data for normalization and concentration-response curve (10 dose points with 4× serial dilution, starting with 10 μM) was plotted using Prism to calculate IC50 (M), pIC50 (−log IC50) and HillSlope value.

T2 sequence (P22607 whole entry, change not shown, the tested form may be a part): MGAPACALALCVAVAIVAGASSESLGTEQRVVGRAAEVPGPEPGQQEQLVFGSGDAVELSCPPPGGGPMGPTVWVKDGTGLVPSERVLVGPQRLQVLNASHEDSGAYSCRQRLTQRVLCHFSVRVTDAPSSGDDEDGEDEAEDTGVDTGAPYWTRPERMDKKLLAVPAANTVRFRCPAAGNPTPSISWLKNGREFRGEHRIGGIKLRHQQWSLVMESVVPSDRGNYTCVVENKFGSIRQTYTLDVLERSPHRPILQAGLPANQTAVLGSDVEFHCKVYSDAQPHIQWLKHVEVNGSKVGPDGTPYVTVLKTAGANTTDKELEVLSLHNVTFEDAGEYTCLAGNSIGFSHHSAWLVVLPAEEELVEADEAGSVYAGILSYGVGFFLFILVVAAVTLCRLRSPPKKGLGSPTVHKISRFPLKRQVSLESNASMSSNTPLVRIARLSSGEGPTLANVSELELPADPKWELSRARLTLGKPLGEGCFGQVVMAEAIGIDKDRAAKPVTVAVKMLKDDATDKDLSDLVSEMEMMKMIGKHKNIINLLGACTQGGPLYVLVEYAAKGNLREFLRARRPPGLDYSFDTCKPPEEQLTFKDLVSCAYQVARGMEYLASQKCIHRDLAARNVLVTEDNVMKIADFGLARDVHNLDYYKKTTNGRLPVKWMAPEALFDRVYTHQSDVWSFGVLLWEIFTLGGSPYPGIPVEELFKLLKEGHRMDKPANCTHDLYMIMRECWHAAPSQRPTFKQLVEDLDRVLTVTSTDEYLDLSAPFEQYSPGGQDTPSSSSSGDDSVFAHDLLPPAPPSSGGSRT
T5 sequence (P22607 397-806 V555L limits assumed): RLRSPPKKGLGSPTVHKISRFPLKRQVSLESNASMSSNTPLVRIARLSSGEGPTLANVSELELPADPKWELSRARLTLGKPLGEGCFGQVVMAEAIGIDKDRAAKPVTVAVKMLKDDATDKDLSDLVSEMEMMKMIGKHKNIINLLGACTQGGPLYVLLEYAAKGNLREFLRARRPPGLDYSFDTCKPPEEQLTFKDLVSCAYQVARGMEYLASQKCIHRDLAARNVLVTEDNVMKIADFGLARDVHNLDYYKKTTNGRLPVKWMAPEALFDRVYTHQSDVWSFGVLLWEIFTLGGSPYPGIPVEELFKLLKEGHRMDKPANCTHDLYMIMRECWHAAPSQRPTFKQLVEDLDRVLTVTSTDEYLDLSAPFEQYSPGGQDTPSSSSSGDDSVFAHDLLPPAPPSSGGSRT
T1 sequence (P22607 397-806 V555M limits assumed): as the sequence (P22607 397-806 V555L limits assumed) above, with L159M counted along it
T4 sequence (P22607 whole entry V555M, the tested form may be a part): as the sequence (P22607 whole entry, change not shown, the tested form may be a part) above, with V555M counted along it
T3 sequence (P22607 397-806 limits assumed): as the sequence (P22607 397-806 V555L limits assumed) above, with L159V counted along it

With `O=c1[nH]c2ccccc2c(NC(c2ncccn2)C2CC2)c1-c1nc2ccc(N3CCOCC3)cc2[nH]1` (single isomer, unassigned) [Compound 33a, (S*)-4-((cyclopropyl(pyrimidin-2-yl)methyl)amino)-3-(6-morpholino-1H-benzo[d]imidazol-2-yl)quinolin-2(1H)-one], the IC50 in assay [1] worked out at 1080 nM; in assay [2] it was 0.237 nM; in assay [4] it was 0.595 nM; in assay [6] it was 0.63 nM. Further, the GI50 in assay [3] was 9.24 nM; in assay [5], 6.41 nM.

Take `C[C@H](Nc1c(-c2nc3ccc(N4CCN(C)CC4)cc3[nH]2)c(=O)[nH]c2ccccc12)c1ccccn1` [Compound 65, (S)-3-(6-(4-methylpiperazin-1-yl)-1H-benzo[d]imidazol-2-yl)-4-((1-(pyridin-2-yl)-ethyl)amino)quinolin-2(1H)-one]: the IC50 stood at 165 nM in assay [1], 0.193 nM in assay [2], 0.377 nM in assay [4] and 0.246 nM in assay [6]. The GI50 in assay [3] was 5.93 nM; in assay [5] it was 8.19 nM.
